Assays:
[1] = LC/MS quantification of peptide 5A in blood plasma of nanoparticle injected rats; assay type: in vivo, Wistar rats; conditions: same rat plasma samples
Protocol: The acrylamide based nanoparticles containing peptide 5A were injected in the lateral tail vein of 3 Wistar rats at a concentration of 17.25 mg of nanoparticle per kg of bodyweight, corresponding to 0.5 mg peptide 5A per kg of bodyweight. Blood samples were collected in lithium heparin plasma microtainer tubes (BD, Franklin Lakes, NJ). A small incision was made in the contralateral tail vein and the blood was collected directly into the tube. Immediately after collecting the blood, the tubes were manually inverted 8 times to ensure mixing with the anti-coagulant. Blood samples were stored on ice for up to 30 minutes before separating the plasma by centrifugation at 2000 g for 10 minutes. No hemolysis was observed. […]
Peptide 5A standards were prepared by spiking rat plasma with peptide 5A+B and subsequently reducing the disulfide bond between peptide 5A and 5B, yielding free peptide 5A as depicted in Fig 1. […] (Neither the peaks corresponding to the mass of peptide 5B nor the unreduced peptide 5A+B were analyzed, see LC-MS analysis section). […]
Plasma samples for LC/MS were prepared by adding 300 μL of 10 mM TCEP in loading mobile phase mix to 30 μL of sample. […] The filtrate was transferred to autosampler vials and analyzed or frozen at -80°C until analysis.
Samples with expected concentrations higher than the upper limit of quantification were diluted with rat plasma prior to sample preparation. […]

[2] = ELISA quantification of peptide 5A in blood plasma after intravenous injection of peptide 5A nanoparticles; assay type: in vivo, Wistar rats
Protocol: The acrylamide based nanoparticles containing peptide 5A were injected in the lateral tail vein of 3 Wistar rats at a concentration of 17.25 mg of nanoparticle per kg of bodyweight, corresponding to 0.5 mg peptide 5A per kg of bodyweight. Blood samples were collected in lithium heparin plasma microtainer tubes (BD, Franklin Lakes, NJ). A small incision was made in the contralateral tail vein and the blood was collected directly into the tube. Immediately after collecting the blood, the tubes were manually inverted 8 times to ensure mixing with the anti-coagulant. Blood samples were stored on ice for up to 30 minutes before separating the plasma by centrifugation at 2000 g for 10 minutes. No hemolysis was observed.
Samples were collected from each animal immediately after injection (time point 0) and at 15, 30, 60, 120, 240, 480 minutes after injection. All plasma samples were stored at -80°C until further analysis.
The plasma samples were diluted 1/500 in PBS, based on the range of the standard curve and the expected initial plasma concentrations. Streptavidin coated ELISA 96-well microplates (Steffens Biotechnische Analysen, Germany) were rinsed with 100 μl PBS per well and incubated with plasma samples in duplicate, for one hour at room temperature. After washing the wells three times with PBS, the carboxyfluorescein group present on the reporter peptide was detected by incubating with monoclonal (mAb) mouse-anti-fluorescein peroxidase-conjugated IgG (Dianova, Hamburg, Germany) diluted 1:100,000 in PBS with 0.1% BSA for one hour. Subsequently, the wells were washed three times with PBS and incubated with soluble high sensitivity TMB (SDT, Baesweiler, Germany) for 10 minutes in the dark. The enzymatic peroxidase reaction was stopped with 1 M HCl and absorbance at 450 nm was measured on a VICTOR X3 Multilabel Plate Reader (Perkin Elmer, Waltham, MA). All incubations were performed at room temperature on a plate shaker at 650 rpm. The wells were washed with PBS three times both after sample and antibody incubation. The TMB reaction was performed in the dark for 10 minutes. […] The absorbance at 450 nm of the negative controls was considered as background and subtracted from the absorbance of the plasma samples.
Free peptide 5A was used as a positive control in the ELISA described above with a lower limit of detection of 1 ng/mL (data not shown). Nanoparticles containing a known concentration of peptide 5A, were used to generate a standard curve for the quantification of blood plasma samples. The standard curve data were fitted to a Hill curve using Graphpad Prism (Graphpad Software, La Jolla, CA) and the Hill equation was used to calculate the concentration of peptide 5A in blood plasma samples from the absorbance at 450 nm (See S1 Table).

[3] = i.v. nanoparticles 17.25 mg/kg = 0.5 mg peptide 5A per kg, Wistar rats, n = 3

- factor by which plasma concentrations measured by LC/MS were higher than by ELISA [1]: ~4
- peptide 5A plasma concentration (ELISA), highest concentration ([2]; 15 minutes after injection, i.v. lateral tail vein, nanoparticles 17.25 mg/kg = 0.5 mg peptide 5A per kg, male Wistar rats, plasma diluted 1/500 in PBS, mean ± S.E.M., 3 animals): 2706 ± 466 ng/mL
- time after injection up to which the peptide was detected in plasma (ELISA) [2, 3]: up to 2 hours
- time of highest plasma concentration (ELISA) [2, 3]: 15 min
- peptide 5A plasma concentration (ELISA) ([2]; time point 0 (immediately after injection), i.v. lateral tail vein, nanoparticles 17.25 mg/kg = 0.5 mg peptide 5A per kg, male Wistar rats, plasma diluted 1/500 in PBS, mean ± S.E.M., 3 animals): 1661 ± 514 ng/mL
Substance: napvsipqKGGC [peptide 5A, reporter peptide napvsipqKGGC functionalized with biotin and carboxyfluorescein, attached to nanoparticles]

From article PMC4440766, “Detection of Peptide-Based Nanoparticles in Blood Plasma by ELISA” (PLoS ONE, 2015)
